Measurements published in patent US20190388389A1, “METHODS AND COMPOSITIONS OF CARNOSOL FOR INHIBITING UVB-INDUCED SKIN DAMAGE” (Ohio University, priority 2017, published 2019).

Tests used:
[1] = system: cyclobutane pyrimidine dimer (CPD) formation; test: Quantitative measurement of CPD formation after UVB; format: cell-based; conditions: with vs without carnosol
From the text: FIG. 5E: Quantitative measurement of cyclobutane pyrimidine dimer (CPD) formation, with and without UVB, and with and without carnosol. *p<0.05 versus corresponded control group, **p<0.05 versus corresponded UV group.
There are two major forms of DNA damage caused by UVB radiation: one is the direct DNA damage which forms CPD; the other is the oxidation-caused DNA damage, which causes the formation of 6-4 PP. In order to identify which form of DNA damage is protected by carnosol, a quantitative assay to identify the production of both DNA damage products after UVB radiation with or without carnosol treatment was performed.

IκB = test: Western blot for IκB protein level, MEF cells; format: cell-based, mouse; conditions: 20 μM carnosol, 6 h post UVB
Procedure: FIGS. 7A-7F: Carnosol inhibited UVB-induced NF-κB activation. Cells were exposed to UVB radiation in the presence or absence of carnosol. Cells were lysed at indicated time point and protein levels were measured by western blot analysis. (FIG. 7A) Western blot for IκB protein level in HaCaT cells at 2, 4 h post UVB radiation at 1, 10 or 20 μM carnosol treatment. (FIG. 7B) Western blot analysis for IκB protein level in HaCaT cells at 6 h post UVB radiation in the presence or absence of carnosol. (FIG. 7C) Western blot analysis for IκB protein level in MEF cells at 6 h post UVB radiation in the presence or absence of carnosol. (FIG. 7D) Western blot for 5276 site phosphorylation of NF-κB in HaCaT cells at 6 h post UVB with indicated carnosol concentration. (FIG. 7E) EMSA assay for HaCaT cells at 2, 4, 6 h post UVB radiation in the presence or absence of carnosol (20 μM). (FIG. 7F) Statistical analysis of the EMSA assay using two to three sets of independent experiments. *p<0.05 versus control group, **p<0.05 versus UV group at indicated time point.
Cells were lysed with Nonidet P-40 (NP-40) lysis buffer (2% NP-40, 80 mM NaCl, 100 mM Tris-HCl pH 8.0, 0.1% SDS) with proteinase inhibitor mixture (Complete™, Roche Molecular Biochemicals) at indicated time point. […] Protein concentration was measured by Protein DC Assay kit (Bio-Rad Laboratories). […]

phosphor-Chk = test: Western blot of DNA damage marker, HaCaT cells; format: cell-based, Human; conditions: 15 min and 1 h post UVB 50 mJ/cm^2
Procedure: (§1) FIGS. 5A-5B: Carnosol protects UVB-induced DNA damage. (FIG. 5A) HaCaT cells and (FIG. 5B) MEF cells were exposed to 50 mJ/cm^2 UVB radiation in the presence or absence of carnosol. Cells were lysed at indicated time point and protein levels of phosphorylated H2AX and Chk were measured. The data represents three sets of independent experiments.
(§2) Cells were lysed with Nonidet P-40 (NP-40) lysis buffer (2% NP-40, 80 mM NaCl, 100 mM Tris-HCl pH 8.0, 0.1% SDS) with proteinase inhibitor mixture (Complete™, Roche Molecular Biochemicals) at indicated time point. Cell lysate was incubated on ice for 15 min and then centrifuged at 14,000 rpm at 4° C. for 15 min. Protein concentration was measured by Protein DC Assay kit (Bio-Rad Laboratories). Equal amounts of protein were subjected on SDS-PAGE and transferred to a nitrocellulose membrane. The membrane was then blocked in 5% milk in Tris buffered saline plus Tween 20 ® (TBST) for 45 min and probed with anti-yH2AX (Cell Signaling), anti-pCHK (Cell Signaling), anti-p276-NF-κB (Santa Cruz), anti-NF-κB p65 (Santa Cruz), anti-IκB (Santa Cruz), or anti-β-actin (Santa Cruz) at 4° C. overnight. After washing with TBST, the membrane was incubated with corresponding HRP-conjugated anti-rabbit or anti-mouse antibody for 45 min at room temperature. […]

[2] = system: γH2AX (phosphorylated H2AX); test: Western blot of DNA damage marker, HaCaT cells; format: cell-based, Human; conditions: 15 min and 1 h post UVB 50 mJ/cm^2
Procedure: as §1, §2

CC(C)c1cc2c(c(O)c1O)[C@@]13CCCC(C)(C)[C@@H]1C[C@@H]2OC3=O [carnosol]
formation of CPD after UVB radiation [1]: almost by half | IκB protein level (IκB): partial recovery of IκB level | phosphorylation level of Chk (phosphor-Chk): significantly reduced | phosphorylation level of H2AX [2]: significantly reduced
